Data: ChEMBL document CHEMBL1201862, “PubChem BioAssay data set” (2004)
Active and inactive are the calls of the source.

Tests used:
[1] = cytotoxicity toward NIH3T3 fibroblasts, dose response, counter-screen, cell-based, ATP luminescence, mouse fibroblasts (AID 2010); type: functional;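 also: cells exposed to compound for about 90 hours before reading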
[2] = cells
[3] = inhibitors of intracellular T. cruzi replication, confirmation, NIH3T3 host cells, beta-gal luminescence (AID 2044); type: functional, cell-based;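 also: intracellular parasites grown in NIH/3T3 mouse fibroblasts as host cells; luminescent beta-galactosidase reporter signal from transgenic T. cruzi replicating inside host cells; inhibitors lower the luminescence signal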
[4] = target: T1, Fatty acid synthase (Homo sapiens, UniProt P49327); assay: FAS thioesterase domain inhibitors, dose response, biochemical, kinetic fluorescence intensity (AID 624326); type: functional;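 also: rate of fluorescence rise from hydrolysis of a fluorogenic O-methyl fluorescein ester substrate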
[5] = target: T1, Fatty acid synthase; assay: FAS thioesterase domain inhibitors, dose response, biochemical, endpoint fluorescence intensity, uHTS hits (AID 624327); type: functional;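 also: fluorescence from hydrolysis of an O-methyl fluorescein acyl ester substrate by the enzyme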
[6] = M. tuberculosis H37Rv growth inhibitors, H37Rv strain (AID 1626); type: functional
[7] = target: Prothrombin (Homo sapiens, UniProt P00734); assay: Thrombin 1536 HTS Dose Response Confirmation. [Related pubchem assays: 1046 (Thrombin 1536 HTS; hits were confirmed in this assay)]; type: functional
[8] = target: T2, High affinity choline transporter 1 (Homo sapiens, UniProt Q9GZV3); assay: CHT inhibitors, dose response, cell-based, 5-point CRC, membrane potential dye (AID 504840); type: functional
T2 sequence (Q9GZV3 whole entry): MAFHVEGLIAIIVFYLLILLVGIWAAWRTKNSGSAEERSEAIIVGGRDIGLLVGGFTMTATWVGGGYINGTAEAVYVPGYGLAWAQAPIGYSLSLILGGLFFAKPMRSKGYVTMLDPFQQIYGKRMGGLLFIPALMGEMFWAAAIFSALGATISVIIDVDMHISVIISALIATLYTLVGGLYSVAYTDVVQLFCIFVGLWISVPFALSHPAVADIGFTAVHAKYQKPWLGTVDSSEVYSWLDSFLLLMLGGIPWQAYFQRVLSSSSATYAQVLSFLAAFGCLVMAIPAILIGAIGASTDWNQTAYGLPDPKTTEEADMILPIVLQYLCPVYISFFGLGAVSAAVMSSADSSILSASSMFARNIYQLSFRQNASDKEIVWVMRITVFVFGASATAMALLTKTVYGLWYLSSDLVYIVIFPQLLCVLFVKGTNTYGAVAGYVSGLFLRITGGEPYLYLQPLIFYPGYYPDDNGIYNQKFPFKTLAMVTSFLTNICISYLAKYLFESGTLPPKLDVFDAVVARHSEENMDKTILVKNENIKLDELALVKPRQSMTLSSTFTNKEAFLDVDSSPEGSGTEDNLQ

[9] = target: Albumin (Bos taurus, UniProt P02769); assay: Counterscreen for inhibitors of T-cell receptor (TCR)-CD3 interaction: Fluorescence-based biochemical high throughput dose response assay to identify inhibitors of T-cell receptor (TCR)-CD3 interaction using a TAMRA-labeled BSA probe.; type: functional
[10] = target: T3, Caspase-6 (Homo sapiens, UniProt P55212); assay: human caspase-6 inhibitors, dose response, biochemical, VEID-R110 fluorescence, cherry-pick (AID 720632)
T3 sequence (P55212 whole entry): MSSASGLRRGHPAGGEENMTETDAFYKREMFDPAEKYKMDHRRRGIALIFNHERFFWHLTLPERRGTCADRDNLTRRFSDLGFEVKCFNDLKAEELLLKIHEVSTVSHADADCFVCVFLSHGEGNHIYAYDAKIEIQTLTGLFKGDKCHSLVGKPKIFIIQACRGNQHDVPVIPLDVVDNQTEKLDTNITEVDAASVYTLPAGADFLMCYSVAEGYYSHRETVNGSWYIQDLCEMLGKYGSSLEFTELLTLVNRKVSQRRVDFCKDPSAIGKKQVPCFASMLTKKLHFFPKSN

[11] = target: T4, Calpain-2 catalytic subunit (Sus scrofa, UniProt P43367); assay: pig calpain II inhibitor potency, dose response, biochemical, fluorogenic peptide substrate (AID 1420); type: functional
T4 sequence (P43367 whole entry): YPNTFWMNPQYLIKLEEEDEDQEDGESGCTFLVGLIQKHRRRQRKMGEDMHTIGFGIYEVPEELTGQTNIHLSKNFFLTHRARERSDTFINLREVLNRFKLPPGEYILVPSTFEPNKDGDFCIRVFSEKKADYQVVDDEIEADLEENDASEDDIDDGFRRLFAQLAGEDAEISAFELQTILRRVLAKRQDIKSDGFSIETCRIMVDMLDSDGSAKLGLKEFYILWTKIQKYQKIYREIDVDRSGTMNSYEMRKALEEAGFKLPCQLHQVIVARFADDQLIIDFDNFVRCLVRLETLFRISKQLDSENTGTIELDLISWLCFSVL

[12] = target: T5, Replicative DNA helicase DnaB (Mycobacterium tuberculosis, UniProt P9WMR3); assay: DnaB intein splicing inhibitors, dose response, biochemical, cell-free fluorescence (AID 449749); type: functional
T5 sequence (P9WMR3 whole entry): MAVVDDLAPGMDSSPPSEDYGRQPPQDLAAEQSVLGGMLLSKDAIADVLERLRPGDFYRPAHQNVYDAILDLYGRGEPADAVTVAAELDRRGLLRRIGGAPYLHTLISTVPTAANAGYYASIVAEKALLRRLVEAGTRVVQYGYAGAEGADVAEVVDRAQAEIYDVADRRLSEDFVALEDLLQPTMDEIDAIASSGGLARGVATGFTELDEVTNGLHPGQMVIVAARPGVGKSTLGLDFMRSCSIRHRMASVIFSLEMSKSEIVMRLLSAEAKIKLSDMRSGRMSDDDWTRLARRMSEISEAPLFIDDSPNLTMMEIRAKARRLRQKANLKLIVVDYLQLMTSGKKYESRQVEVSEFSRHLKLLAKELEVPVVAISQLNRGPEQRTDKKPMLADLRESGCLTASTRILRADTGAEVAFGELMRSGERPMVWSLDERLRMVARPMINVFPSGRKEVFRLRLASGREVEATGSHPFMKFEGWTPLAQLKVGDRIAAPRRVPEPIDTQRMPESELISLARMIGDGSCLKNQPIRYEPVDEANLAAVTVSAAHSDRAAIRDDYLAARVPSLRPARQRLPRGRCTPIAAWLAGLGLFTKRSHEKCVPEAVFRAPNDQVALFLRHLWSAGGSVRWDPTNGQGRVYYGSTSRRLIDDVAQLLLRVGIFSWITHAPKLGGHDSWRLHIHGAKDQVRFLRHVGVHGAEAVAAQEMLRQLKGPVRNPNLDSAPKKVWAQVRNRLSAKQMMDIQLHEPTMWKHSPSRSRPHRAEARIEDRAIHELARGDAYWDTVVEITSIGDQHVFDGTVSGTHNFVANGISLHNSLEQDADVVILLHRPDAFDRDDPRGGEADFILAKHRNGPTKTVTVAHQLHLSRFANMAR

[13] = target: T6, Protein RecA (Mycobacterium tuberculosis, UniProt P9WHJ3); assay: Fluorescence Cell-Free Homogeneous Dose Retest to Identify Inhibitors of RecA-Intein Splicing Activity. [Related pubchem assays (depositor defined):AID2097, AID2223, AID489010, AID492950]; type: functional
T6 sequence (P9WHJ3 whole entry): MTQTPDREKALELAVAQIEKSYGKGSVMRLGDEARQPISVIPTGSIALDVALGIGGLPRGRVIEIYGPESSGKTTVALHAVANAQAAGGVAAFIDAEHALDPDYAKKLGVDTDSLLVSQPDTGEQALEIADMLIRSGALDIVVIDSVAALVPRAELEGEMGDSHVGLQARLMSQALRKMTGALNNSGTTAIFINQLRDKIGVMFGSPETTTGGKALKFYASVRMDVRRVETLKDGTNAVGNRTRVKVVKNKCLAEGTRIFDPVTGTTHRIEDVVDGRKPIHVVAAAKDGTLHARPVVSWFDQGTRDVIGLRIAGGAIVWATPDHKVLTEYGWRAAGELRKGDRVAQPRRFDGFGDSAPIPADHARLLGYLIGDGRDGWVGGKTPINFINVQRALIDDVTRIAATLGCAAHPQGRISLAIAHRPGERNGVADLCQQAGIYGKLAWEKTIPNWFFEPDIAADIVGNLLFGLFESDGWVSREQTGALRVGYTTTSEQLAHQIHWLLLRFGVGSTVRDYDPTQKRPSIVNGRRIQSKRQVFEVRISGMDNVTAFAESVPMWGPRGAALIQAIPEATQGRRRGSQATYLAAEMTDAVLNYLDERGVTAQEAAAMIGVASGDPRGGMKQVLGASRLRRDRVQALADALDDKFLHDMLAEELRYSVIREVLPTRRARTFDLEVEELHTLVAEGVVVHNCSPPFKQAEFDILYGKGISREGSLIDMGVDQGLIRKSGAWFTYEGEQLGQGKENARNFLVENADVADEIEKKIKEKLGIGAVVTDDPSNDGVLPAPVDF

[14] = target: Genome polyprotein (dengue virus type 2, UniProt P29990); assay: Dengue-2 NS5 methyltransferase inhibitors, primary screen, biochemical, confirmation dose response (AID 588689); type: functional
[15] = target: Large T antigen (Simian virus 40, UniProt P03070); type: functional, Betapolyomavirus macacae;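 also: Confirmatory-stage PubChem screen for compounds that inhibit SV40 T antigen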
[16] = target: Nonstructural protein 1 (Influenza A virus, UniProt Q194T2); type: functional, Influenza A virus (A/California/07/2009(H1N1))
Sequence of Nonstructural protein 1 (Q194T2 whole entry): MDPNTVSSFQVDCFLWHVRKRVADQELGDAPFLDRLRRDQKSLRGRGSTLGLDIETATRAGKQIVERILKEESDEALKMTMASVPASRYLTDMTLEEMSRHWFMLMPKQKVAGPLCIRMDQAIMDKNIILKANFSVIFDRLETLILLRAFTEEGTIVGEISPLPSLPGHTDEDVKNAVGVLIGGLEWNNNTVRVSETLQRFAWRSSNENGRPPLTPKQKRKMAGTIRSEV

T1 sequence (P49327 whole entry, the tested form may be a part): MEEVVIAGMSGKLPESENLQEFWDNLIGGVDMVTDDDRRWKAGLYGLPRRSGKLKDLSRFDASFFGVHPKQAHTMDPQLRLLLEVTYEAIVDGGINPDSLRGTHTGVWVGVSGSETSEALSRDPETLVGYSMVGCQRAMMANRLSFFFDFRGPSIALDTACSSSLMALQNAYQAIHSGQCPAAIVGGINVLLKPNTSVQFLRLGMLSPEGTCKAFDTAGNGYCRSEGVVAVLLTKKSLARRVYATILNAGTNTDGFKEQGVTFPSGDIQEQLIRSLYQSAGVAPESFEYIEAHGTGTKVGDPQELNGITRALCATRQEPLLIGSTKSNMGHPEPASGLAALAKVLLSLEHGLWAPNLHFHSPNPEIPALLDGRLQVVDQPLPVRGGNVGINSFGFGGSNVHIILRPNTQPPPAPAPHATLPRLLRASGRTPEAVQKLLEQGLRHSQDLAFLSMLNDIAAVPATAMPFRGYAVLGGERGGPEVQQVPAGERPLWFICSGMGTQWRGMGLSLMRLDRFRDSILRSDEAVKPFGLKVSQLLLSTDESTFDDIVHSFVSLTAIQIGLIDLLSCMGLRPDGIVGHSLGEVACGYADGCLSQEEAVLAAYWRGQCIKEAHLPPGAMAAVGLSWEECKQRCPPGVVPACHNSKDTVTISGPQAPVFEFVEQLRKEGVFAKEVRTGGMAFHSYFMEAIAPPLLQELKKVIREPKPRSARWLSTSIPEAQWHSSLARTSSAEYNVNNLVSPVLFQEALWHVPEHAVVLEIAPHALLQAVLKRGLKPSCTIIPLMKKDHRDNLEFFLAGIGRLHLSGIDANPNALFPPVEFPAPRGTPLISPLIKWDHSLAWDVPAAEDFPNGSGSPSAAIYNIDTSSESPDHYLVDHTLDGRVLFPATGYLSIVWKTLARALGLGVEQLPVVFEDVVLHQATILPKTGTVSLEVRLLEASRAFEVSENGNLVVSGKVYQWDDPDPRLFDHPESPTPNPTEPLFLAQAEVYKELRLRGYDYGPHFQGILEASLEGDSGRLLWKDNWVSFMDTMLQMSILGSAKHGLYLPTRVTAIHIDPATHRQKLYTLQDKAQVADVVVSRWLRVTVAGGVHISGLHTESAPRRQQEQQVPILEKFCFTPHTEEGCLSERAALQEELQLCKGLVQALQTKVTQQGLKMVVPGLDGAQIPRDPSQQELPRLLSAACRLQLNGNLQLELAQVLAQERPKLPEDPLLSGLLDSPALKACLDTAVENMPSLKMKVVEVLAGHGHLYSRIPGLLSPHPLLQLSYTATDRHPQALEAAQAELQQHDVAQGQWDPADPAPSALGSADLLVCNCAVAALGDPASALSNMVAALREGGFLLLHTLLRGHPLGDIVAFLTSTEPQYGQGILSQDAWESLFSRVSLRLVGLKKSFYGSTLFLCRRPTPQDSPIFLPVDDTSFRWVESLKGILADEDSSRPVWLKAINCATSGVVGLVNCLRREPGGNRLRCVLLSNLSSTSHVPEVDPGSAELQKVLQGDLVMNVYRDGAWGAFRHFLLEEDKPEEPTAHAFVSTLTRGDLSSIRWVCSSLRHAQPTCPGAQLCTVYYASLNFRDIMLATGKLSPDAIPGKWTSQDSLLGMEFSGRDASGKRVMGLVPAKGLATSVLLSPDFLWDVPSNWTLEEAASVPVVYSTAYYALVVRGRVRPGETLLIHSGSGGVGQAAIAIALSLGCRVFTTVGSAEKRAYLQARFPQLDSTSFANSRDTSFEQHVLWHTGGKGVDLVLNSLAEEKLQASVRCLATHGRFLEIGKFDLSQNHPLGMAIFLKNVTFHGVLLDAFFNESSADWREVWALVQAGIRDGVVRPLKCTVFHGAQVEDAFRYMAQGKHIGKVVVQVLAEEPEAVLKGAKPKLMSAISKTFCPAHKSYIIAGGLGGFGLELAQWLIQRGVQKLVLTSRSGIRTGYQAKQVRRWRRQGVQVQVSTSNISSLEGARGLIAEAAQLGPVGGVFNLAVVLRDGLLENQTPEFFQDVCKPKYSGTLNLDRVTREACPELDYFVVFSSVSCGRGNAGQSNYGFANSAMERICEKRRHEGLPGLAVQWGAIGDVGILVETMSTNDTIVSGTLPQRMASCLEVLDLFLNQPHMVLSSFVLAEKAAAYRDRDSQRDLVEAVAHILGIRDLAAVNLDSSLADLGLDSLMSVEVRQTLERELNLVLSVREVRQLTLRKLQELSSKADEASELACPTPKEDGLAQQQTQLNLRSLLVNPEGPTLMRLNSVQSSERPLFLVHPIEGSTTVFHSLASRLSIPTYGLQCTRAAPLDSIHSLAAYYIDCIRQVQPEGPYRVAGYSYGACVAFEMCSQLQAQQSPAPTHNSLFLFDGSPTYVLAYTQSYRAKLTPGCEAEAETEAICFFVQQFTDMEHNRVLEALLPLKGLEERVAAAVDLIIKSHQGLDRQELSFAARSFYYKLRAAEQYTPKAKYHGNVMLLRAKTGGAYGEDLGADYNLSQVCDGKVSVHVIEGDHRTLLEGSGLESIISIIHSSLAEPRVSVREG
Sequence of Albumin (P02769 whole entry): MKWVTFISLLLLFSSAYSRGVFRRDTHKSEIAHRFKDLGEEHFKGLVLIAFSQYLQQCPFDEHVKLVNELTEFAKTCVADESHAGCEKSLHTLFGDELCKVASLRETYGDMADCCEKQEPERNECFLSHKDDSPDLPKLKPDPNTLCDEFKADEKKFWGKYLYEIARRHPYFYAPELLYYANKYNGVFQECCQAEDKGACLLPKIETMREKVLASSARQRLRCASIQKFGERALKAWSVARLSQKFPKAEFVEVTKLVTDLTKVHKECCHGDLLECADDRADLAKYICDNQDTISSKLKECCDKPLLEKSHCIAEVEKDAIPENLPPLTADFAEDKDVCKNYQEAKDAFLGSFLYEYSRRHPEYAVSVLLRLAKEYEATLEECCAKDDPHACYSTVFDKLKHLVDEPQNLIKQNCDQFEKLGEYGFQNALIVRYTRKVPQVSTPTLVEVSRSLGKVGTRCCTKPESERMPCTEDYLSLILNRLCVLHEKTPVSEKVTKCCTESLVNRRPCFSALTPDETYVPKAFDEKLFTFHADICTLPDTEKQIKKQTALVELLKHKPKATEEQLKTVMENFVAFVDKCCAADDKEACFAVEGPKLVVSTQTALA
Sequence of Large T antigen (P03070 whole entry): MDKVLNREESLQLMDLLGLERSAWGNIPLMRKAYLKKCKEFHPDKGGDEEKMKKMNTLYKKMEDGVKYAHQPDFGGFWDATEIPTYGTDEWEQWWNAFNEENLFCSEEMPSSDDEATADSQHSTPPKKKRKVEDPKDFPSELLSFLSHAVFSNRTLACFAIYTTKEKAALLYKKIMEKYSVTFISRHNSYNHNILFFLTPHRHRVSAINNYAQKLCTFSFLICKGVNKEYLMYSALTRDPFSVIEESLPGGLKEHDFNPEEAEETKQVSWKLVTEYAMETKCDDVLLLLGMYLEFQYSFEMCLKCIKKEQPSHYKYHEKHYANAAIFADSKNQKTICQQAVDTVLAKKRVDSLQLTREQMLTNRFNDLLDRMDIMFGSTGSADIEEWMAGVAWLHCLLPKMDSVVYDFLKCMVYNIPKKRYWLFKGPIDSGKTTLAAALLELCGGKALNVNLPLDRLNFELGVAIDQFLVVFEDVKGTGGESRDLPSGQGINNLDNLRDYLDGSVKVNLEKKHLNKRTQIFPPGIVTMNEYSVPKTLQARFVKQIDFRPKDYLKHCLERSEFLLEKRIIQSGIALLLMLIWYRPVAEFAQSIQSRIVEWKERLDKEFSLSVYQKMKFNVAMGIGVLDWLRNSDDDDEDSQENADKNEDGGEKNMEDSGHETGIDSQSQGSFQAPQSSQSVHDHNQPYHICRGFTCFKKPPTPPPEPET
Sequence of Genome polyprotein (P29990 2492-3391 limits assumed): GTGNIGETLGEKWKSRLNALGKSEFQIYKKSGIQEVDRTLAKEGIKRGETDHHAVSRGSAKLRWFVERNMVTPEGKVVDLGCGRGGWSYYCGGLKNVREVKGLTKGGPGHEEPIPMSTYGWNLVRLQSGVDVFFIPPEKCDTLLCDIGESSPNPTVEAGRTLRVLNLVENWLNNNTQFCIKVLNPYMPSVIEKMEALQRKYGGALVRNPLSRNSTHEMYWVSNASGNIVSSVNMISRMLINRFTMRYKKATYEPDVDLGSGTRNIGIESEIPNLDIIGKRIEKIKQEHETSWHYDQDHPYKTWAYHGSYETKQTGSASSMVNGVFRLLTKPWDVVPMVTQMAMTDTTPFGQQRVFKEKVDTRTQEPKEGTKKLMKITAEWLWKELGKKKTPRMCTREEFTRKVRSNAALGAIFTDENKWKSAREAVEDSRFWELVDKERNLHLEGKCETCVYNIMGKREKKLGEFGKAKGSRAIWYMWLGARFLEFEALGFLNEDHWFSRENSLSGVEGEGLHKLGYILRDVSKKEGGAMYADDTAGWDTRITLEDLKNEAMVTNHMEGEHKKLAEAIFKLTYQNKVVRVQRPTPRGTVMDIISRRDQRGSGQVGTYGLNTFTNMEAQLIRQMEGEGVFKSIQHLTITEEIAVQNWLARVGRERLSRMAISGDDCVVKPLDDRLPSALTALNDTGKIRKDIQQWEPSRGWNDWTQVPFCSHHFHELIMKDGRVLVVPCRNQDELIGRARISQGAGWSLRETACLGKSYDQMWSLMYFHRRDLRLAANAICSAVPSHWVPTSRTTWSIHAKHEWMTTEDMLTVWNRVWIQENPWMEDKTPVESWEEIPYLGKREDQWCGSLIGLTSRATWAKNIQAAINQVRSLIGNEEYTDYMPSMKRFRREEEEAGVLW

CCOC(=O)c1sc2c(c1C)c(=O)n(Cc1ccccc1)c(=O)n2CCN(C)C
EC50 [1]: > 60 µM (not active) | EC50 [2]: 0.062 µM (active) | EC50 [3]: < 0.1 µM (active)

CC(C)CSc1ncc(-c2cccc(C(F)(F)F)c2)cn1
IC50 [4]: 14.2 µM (active) | IC50 [5]: 15.5 µM (active)

Cc1cc(O)nc(SCC(=O)C23CC4CC(CC(C4)C2)C3)c1C#N
IC50 [6]: > 100 µM (active)

Cc1c(Cl)cnc(NC(=O)COC(=O)CCC(=O)c2cccs2)c1Cl
IC50 [7]: 2.77 µM (active)

COC(=O)Nc1ccc(S(=O)(=O)NNC(=O)c2c(O)c3ccccc3n(C)c2=O)cc1
IC50 [8]: 13.2 µM (active) | IC50 [9]: > 94.1 µM (inactive)

N#Cc1ccc(Sc2nc3ccccc3[nH]2)cc1C#N
IC50 [4]: 2.3 µM (active) | IC50 [5]: 2.7 µM (active)

O=C(CN1C(=O)C2C3CCC(C3)C2C1=O)Oc1ccc2ccccc2c1 (centres undefined)
IC50 [6]: > 100 µM (active)

Cc1nc(-c2cnn(-c3ccccc3)c2)c2cc(C)oc2n1
IC50 [7]: > 50 µM (not active)

CCOc1ccc(NC2C=CS(=O)(=O)C2)cc1 (centres undefined)
IC50 [6]: > 100 µM (active)

O=C(O)c1ccc(Cl)c(S(=O)(=O)Nc2ccc3c[nH]nc3c2)c1
AC50 [10]: 11.1 µM (active)

C=C(C)COc1ccc(-c2n[nH]cc2Oc2ccccc2OCC)c(O)c1
IC50 [11]: 11.7 µM (not active)

COc1ccc2sc(N(CCCN(C)C)C(=O)c3ccc(S(=O)(=O)N(C)C4CCCCC4)cc3)nc2c1
EC50 [1]: > 60 µM (not active) | EC50 [2]: 0.393 µM (active) | EC50 [3]: < 0.1 µM (active)

COC(=O)Cc1ccc(NC(=O)c2ccc(Br)o2)cc1
IC50 [6]: > 100 µM (active)

CCc1ccc(S(=O)(=O)NCc2cn3c(C)csc3n2)s1
IC50 [11]: 6.07 µM (not active)

Cc1ccnc(NC(=O)c2ccc([N+](=O)[O-])o2)c1
IC50 [7]: > 50 µM (not active)

O=C(O)c1cc(Nc2cc(Cl)c3nonc3c2[N+](=O)[O-])ccc1O
AC50 [12]: 1.17 µM (active) | EC50 [13]: 1.33 µM (active) | AC50 [10]: 14.6 µM (active) | IC50 [14]: 8.55 µM (active) | IC50 [15]: 40.4 µM (active)

COc1ccccc1CNC(=O)COC(=O)c1cc([N+](=O)[O-])ccc1N1CCOCC1
IC50 [4]: 1.64 µM (active) | IC50 [5]: 1.31 µM (active)

CCN(CC)c1ccc(CN(C)CCc2ccc(OC)c(OC)c2)cc1
EC50 [1]: > 60 µM (not active) | EC50 [2]: < 0.004 µM (active) | EC50 [3]: < 0.1 µM (active)

CC(C)(C)C1CCc2c(sc(NC(=O)CSc3nnc(-c4ccccc4)o3)c2C#N)C1 (centres undefined)
IC50 [6]: > 100 µM (active)

COc1ccc(Cl)cc1N(CC(=O)N/N=C/c1ccc(OCC(N)=O)cc1)S(C)(=O)=O
AC50 [10]: 9 µM (active)

CC(C)(C)c1csc(N/N=C/c2cccnc2)n1
IC50 [11]: 18.6 µM (not active)

COc1cc(O)c(/C=N/NC(=O)c2ccncc2)c(OC)c1[N+](=O)[O-]
IC50 [16]: 8.82 µM (active) | IC50 [9]: > 94.1 µM (inactive)

COc1ccc([N+](=O)[O-])cc1NC(=O)Nc1ccccc1
IC50 [4]: 15.5 µM (active) | IC50 [5]: 19.9 µM (active)
